Patent US20230117034A1, “PYRAZOLOTRIAZINES” (Bayer Aktiengesellschaft, priority 2019, published 2023)
Where two headings read alike, the source gives them in different places.

Assays:
[1] = tested on: MDA-MB-231, human breast cancer cells; assay: Proliferation assay MDA-MB-231 (crystal violet, 4 days); format: cell-based; settings: Homo sapiens, MDA-MB-231 cells, median, read-out: Prolif-MDA MB-231, IC50-[mol/l] (median)
How it was run: (§1)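 IC50 from a 4-parameter fit of crystal violet absorbance (595 nm), scaled between a day-0 plate (0%) and untreated wells (100%). Cells grown in 10% FCS medium were exposed to test substances at 0.01-10 µmol/L for 4 days, 0.1% DMSO final.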

CDK9/CycT1 = target: T1, CDK9/CycT1 (Homo sapiens, UniProt P50750); assay: CDK9/CycT1 high ATP kinase assay (TR-FRET, 2 mM ATP); format: biochemical
T1 construct: Recombinant full-length His-tagged human CDK9 and CycT1; purchased Life Technologies PV4131; host or cells: insect cells
How it was run: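 Full-length His-tagged human CDK9/CycT1 (insect cell, ~0.5 μg/mL) preincubated 15 min at 22 °C with compound in Tris pH 8.0, MgCl2, DTT buffer before reaction with biotinylated peptide substrate at high ATP (2 mM).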

[2] = tested on: CAL-120, human breast adenocarcinoma cells; assay: Proliferation assay CAL-120 (crystal violet, 4 days); format: cell-based; settings: Homo sapiens, CAL-120 cells, median, read-out: Prolif-CAL-120, IC50-[mol/l] (median)
How it was run: as §1

[3] = 2 mM ATP (high ATP), median, read-out: CDK9/CyclinT1, 2 mM ATP (high ATP), IC50 (median)

T1 sequence (P50750 whole entry): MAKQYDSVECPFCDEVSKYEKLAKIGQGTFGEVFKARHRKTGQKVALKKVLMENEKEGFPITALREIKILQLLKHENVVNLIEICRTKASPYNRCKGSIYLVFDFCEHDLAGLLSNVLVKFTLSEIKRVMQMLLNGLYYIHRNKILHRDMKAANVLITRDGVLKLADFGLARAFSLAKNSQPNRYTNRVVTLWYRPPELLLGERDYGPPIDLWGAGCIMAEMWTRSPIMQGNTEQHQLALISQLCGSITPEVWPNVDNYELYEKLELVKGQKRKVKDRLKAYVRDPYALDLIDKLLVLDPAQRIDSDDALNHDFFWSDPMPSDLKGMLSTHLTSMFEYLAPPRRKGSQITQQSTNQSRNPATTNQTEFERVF
T1 sequence (O60563 whole entry partner): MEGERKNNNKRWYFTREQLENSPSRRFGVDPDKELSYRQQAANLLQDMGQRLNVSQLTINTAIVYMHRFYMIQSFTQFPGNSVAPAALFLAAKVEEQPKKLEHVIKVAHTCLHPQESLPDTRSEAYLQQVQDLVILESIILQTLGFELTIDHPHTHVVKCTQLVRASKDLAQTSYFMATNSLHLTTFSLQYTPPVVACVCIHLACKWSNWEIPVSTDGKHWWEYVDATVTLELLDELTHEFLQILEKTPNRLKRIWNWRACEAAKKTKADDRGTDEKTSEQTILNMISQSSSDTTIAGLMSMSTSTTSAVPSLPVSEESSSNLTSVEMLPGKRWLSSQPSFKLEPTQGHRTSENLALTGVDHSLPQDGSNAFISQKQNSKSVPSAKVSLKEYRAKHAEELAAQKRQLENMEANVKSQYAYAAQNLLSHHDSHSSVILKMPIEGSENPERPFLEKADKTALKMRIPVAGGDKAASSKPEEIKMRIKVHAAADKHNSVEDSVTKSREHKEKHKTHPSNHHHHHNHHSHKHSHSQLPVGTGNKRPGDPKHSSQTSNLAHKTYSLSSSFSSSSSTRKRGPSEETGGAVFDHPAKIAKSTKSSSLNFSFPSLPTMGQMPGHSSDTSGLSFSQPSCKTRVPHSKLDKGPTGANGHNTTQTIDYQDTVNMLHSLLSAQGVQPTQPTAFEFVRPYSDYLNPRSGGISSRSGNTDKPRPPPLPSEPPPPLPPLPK

SMILES | IC50 ([1]; 96 h) [nM] | IC50 (CDK9/CycT1) [µM] | IC50 ([2]; 96 h) [nM] | IC50 ([1]; MDA-MB-231, 96 h) [nM] | IC50 (CDK9/CycT1; [3]) [µM] | IC50 ([2]; CAL-120, 96 h) [nM]
Fc1cc2nc(CNc3nc(N4CC5CCC(C4)N5)nc4c(Br)cnn34)[nH]c2cc1Cl [Example 348, 8-bromo-N-[(6-chloro-5-fluoro-1H-benzimidazol-2-yl)methyl]-2-(3,8-diazabicyclo[3.2.1]octan-3-yl)pyrazolo[1,5-a][1,3,5]triazin-4-amine] | 2 | 14 | 1.14 | – | – | –
Fc1c(Cl)ccc2[nH]c(CNc3nc(N4CCOCC4)nc4c(C5CC5)cnn34)nc12 [Example 370, N-[(5-chloro-4-fluoro-1H-benzimidazol-2-yl)methyl]-8-cyclopropyl-2-(morpholin-4-yl)pyrazolo[1,5-a][1,3,5]triazin-4-amine] | – | – | – | 7.18 | > 20 | 3.59
Fc1c(Cl)ccc2[nH]c(CNc3nc(N4CC5CCC(C4)N5)nc4c(C5CC5)cnn34)nc12 [Example 379, N-[(5-chloro-4-fluoro-1H-benzimidazol-2-yl)methyl]-8-cyclopropyl-2-(3,8-diazabicyclo[3.2.1]octan-3-yl)pyrazolo[1,5-a][1,3,5]triazin-4-amine] | – | – | – | 2.92 | 11.3 | 1.71
Fc1cc(F)cc(-c2nnc(CNc3nc(N4CCOCC4)nc4c(C(F)(F)F)cnn34)[nH]2)c1 [Example 386, N-{[5-(3,5-difluorophenyl)-4H-1,2,4-triazol-3-yl]methyl}-2-(morpholin-4-yl)-8-(trifluoromethyl)pyrazolo[1,5-a][1,3,5]triazin-4-amine] | – | – | – | 20.2 | 0.749 | 12.5
Fc1cc2nc(CNc3nc(N4CCOCC4)nc4c(C(F)(F)F)cnn34)[nH]c2cc1F [Example 333, N-[(5,6-difluoro-1H-benzimidazol-2-yl)methyl]-2-(morpholin-4-yl)-8-(trifluoromethyl)pyrazolo[1,5-a][1,3,5]triazin-4-amine] | – | – | – | 3.78 | > 20 | 3.1
Brc1cnn2c(NCc3nc4ccccc4[nH]3)nc(N3CC4CCC(C3)O4)nc12 [Example 351, N-[(1H-benzimidazol-2-yl)methyl]-8-bromo-2-(8-oxa-3-azabicyclo[3.2.1]octan-3-yl)pyrazolo[1,5-a][1,3,5]triazin-4-amine] | – | – | – | 93.9 | > 20 | 38.4
